In patent publication US4495199A, “Dioxolanic amine with pharmacological activity, its method of preparation, the pharmaceutical compositions containing same and their use in human medicine” (priority 1982, dated 1985):
Counter-ions that a name gives are not always drawn.

Columns and labels:
[1] = test system: fibrillation by chloroform in the male NMRI mouse; assay: Anti-arrhythmic activity, fibrillation by chloroform in the mouse, p.o.; format: in vivo
Source text: Tables 5 and 6 show the anti-arrythmic activity of the ITA 362 in the male NMRI mouse by oral and intraperitoneal route using the fibrillation test by chloroform in the mouse. (V. W. Lawson, J. Pharmacol. Exp. Ther. 160, 22, 1968; B. Vargaftig, J. L. Coignet. Eur.J. Pharmacol. 6, 49, 1969).
The activity of the two forms of maleate described in the example 4 were studied, with that in the table subtitled as isomer A corresponding to the first fraction obtained in the aforementioned example, and isomer B corresponding to the second fraction.

Hygroscopicity = format: physicochemical
[2] = test system: T wave in the conscious dog; assay: Anti-angina activity, amplitude increase protection of the T wave by vasopression in the conscious dog; format: in vivo
Source text: The antiangina activity was also compared with that of the nitroglycerine by means of the amplitude increase protection test of the T wave for vasopression in the conscious dog. (A. Lindner, M. London, G. Werner, Scheiz. Med. Wsohr. 83, 360, 1953; J. Papp. L. Szekeres. Arch. Int. Pharmacodyn, 160, 1, 1966).

hindquarters of rats = assay: Vasodilatory activity, perfusion of the hindquarters of rats with a hyperpotasemic solution; set-up: species or system rat; settings: summary statement
Source text: In the Table 3 is shown the results of the vasodilatory activity of the ITA 362 in the perfusion test of the hindquarters of rats with a hyperpotasemic solution. (F. N. Fastier, F. M. Smirk. Jl, Pharmacolog. Exp. Therapy. 89. 256, 1947).

rat = assay: Acute toxicity, oral, rat; format: in vivo
Description: (§1) The respective lethal dose 50 was calculated according to the method of Litchfield and Wilcoxon (Jl. Pharmacol. Exptl. 96 99, 1949).

mouse = assay: Acute toxicity, oral, mouse; format: in vivo
Description: as §1

CCCCNCC1COC(c2ccc(Cl)cc2)(c2cc3ccccc3o2)O1 (single isomer, unassigned) [ITA 362 maleate (isomer A)]
ED50 ([1]; Mus musculus, po, read-out: ED50 and confidence limits p < 0.05, p.o., dose column in mg/kg): 35.4 mg/kg

CCCCNCC1COC(c2ccc(Cl)cc2)(c2cc3ccccc3o2)O1 (stereo not drawn) [ITA 362 citrate]
hygroscopicity (Hygroscopicity): highly hydroscopic
% protection versus fibrillation ([1]; 3.125 mg/kg p.o.): 10%

O=[N+]([O-])OCC(CO[N+](=O)[O-])O[N+](=O)[O-] [Nitroglycerine, reference compound]
quot. Control/treatment ([2]; 0.4 mg/kg i.v.): 1.520
% Prot. ([2]; 0.4 mg/kg i.v., t student n.s.): 28.9%

CCCCNCC1COC(c2ccc(Cl)cc2)(c2cc3ccccc3o2)O1 (stereo not drawn) [ITA 362, 2-(2'-benzofuranil)-4-n-butylaminomethyl-2-p-chlorophenyl-1,3-dioxolan]
vasodilatory activity (in words) (hindquarters of rats): intense
anti-arrhythmic activity (in words) ([1]; summary statement): intense
Antiangina activity relative to nitroglycerine ([2]; 1 mg/kg i.v. vs nitroglycerine 0.4 mg/kg): greater than that of nitroglycerine
anti-angina activity (in words) ([2]; summary statement): intense
toxicity (in words) (rat; summary statement, species not specified): low toxicity

CCCCNCC1COC(c2ccc(Cl)cc2)(c2cc3ccccc3o2)O1 (stereo not drawn) [ITA 362 maleate, 2-(2'-benzofuranil)-4-butylaminomethyl-2-p-chlorophenyl-1,3-dioxolane, maleate]
LD50 (rat; rat, oral): > 4000 mg/kg
LD50 (mouse): > 4000 mg/kg
